System: PDC 899932-113-R3-J6 complex spheroid viability
Experiment: Anticancer human tumor 899932-113-R3-J6-PDC patient-derived melanoma cell line growth inhibition [RAS]
Settings: for IC50: curve of first compound; for viability, T/C: stronger effect = lower value
Procedure, shortened: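 Tumour cells grown as complex spheroids with HUVEC endothelial cells and mesenchymal stem cells, treated with RAS pathway inhibitor combinations. Each agent spans half-log steps from near clinical Cmax, or 10 microM where Cmax is unknown.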

[1] = second compound 0.00316 µM, first compound 0.00316 µM
[2] = second compound 0.00316 µM, first compound 0.01 µM
[3] = second compound 0.00316 µM, first compound 0.0316 µM
[4] = second compound 0.00316 µM, first compound 0.1 µM
[5] = second compound 0.00316 µM, first compound 0.316 µM
[6] = second compound 0.00316 µM, first compound 1 µM
[7] = second compound 0.01 µM, first compound 0.00316 µM
[8] = second compound 0.01 µM, first compound 0.01 µM
[9] = second compound 0.01 µM, first compound 0.0316 µM
[10] = second compound 0.01 µM, first compound 0.1 µM
[11] = second compound 0.01 µM, first compound 0.316 µM
[12] = second compound 0.01 µM, first compound 1 µM
[13] = second compound 0.0316 µM, first compound 0.00316 µM
[14] = second compound 0.0316 µM, first compound 0.01 µM
[15] = second compound 0.0316 µM, first compound 0.0316 µM
[16] = second compound 0.0316 µM, first compound 0.1 µM
[17] = second compound 0.0316 µM, first compound 0.316 µM
[18] = second compound 0.0316 µM, first compound 1 µM
[19] = second compound 0.1 µM, first compound 0.00316 µM
[20] = second compound 0.1 µM, first compound 0.01 µM
[21] = second compound 0.1 µM, first compound 0.0316 µM
[22] = second compound 0.1 µM, first compound 0.1 µM
[23] = second compound 0.1 µM, first compound 0.316 µM
[24] = second compound 0.1 µM, first compound 1 µM
[25] = second compound 0.316 µM, first compound 0.00316 µM
[26] = second compound 0.316 µM, first compound 0.01 µM
[27] = second compound 0.316 µM, first compound 0.0316 µM
[28] = second compound 0.316 µM, first compound 0.1 µM
[29] = second compound 0.316 µM, first compound 0.316 µM
[30] = second compound 0.316 µM, first compound 1 µM
[31] = second compound 1 µM, first compound 0.00316 µM
[32] = second compound 1 µM, first compound 0.01 µM
[33] = second compound 1 µM, first compound 0.0316 µM
[34] = second compound 1 µM, first compound 0.1 µM
[35] = second compound 1 µM, first compound 0.316 µM
[36] = second compound 1 µM, first compound 1 µM
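Wherever viability, T/C is given: spheroids exposed to agents for seven days before readout; 100% = DMSO vehicle control wells.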

For `CC1(C)CCC(Nc2ncc(C(F)(F)F)c(-c3c[nH]c4c(P(C)(C)=O)c(C#N)ccc34)n2)CN1` (stereo unspecified) + C#Cc1c(F)ccc2cc(O)cc(-c3ncc4c(N5CC6CCC(C5)N6)nc(OCC56CCCN5CC(F)C6)nc4c3F)c12, the IC50 (second compound 0.0316 µM) was 16.4 nM, the IC50 (second compound 0.1 µM) was 15.3 nM and the IC50 (second compound 0.316 µM) was 16.5 nM. For the same compound, the IC50 (second compound 1 µM) was 15.8 nM, the IC50 (second compound 3.16 µM) was 19.2 nM and the IC50 (second compound 10 µM) was 20.7 nM. It also gave a viability, T/C (second compound 0.0316 µM, first compound 0.000949 µM) of 100%, a viability, T/C (second compound 0.0316 µM, first compound 0.003 µM) of 82.4% and a viability, T/C (second compound 0.0316 µM, first compound 0.00949 µM) of 57.3%. The viability, T/C (second compound 0.0316 µM, first compound 0.03 µM) was 45.7%, the viability, T/C (second compound 0.0316 µM, first compound 0.0949 µM) was 13.2% and the viability, T/C (second compound 0.0316 µM, first compound 0.3 µM) was 9.56%. For the same compound, the viability, T/C (second compound 0.1 µM, first compound 0.000949 µM) was 97.2%, the viability, T/C (second compound 0.1 µM, first compound 0.003 µM) was 79.1% and the viability, T/C (second compound 0.1 µM, first compound 0.00949 µM) was 56.9%. The viability, T/C (second compound 0.1 µM, first compound 0.03 µM) was 42.8%, the viability, T/C (second compound 0.1 µM, first compound 0.0949 µM) was 14.3% and the viability, T/C (second compound 0.1 µM, first compound 0.3 µM) was 7.89%. For the same compound, the viability, T/C (second compound 0.316 µM, first compound 0.000949 µM) was 102%, the viability, T/C (second compound 0.316 µM, first compound 0.003 µM) was 84.9% and the viability, T/C (second compound 0.316 µM, first compound 0.00949 µM) was 53.5%. For the same compound, the viability, T/C (second compound 0.316 µM, first compound 0.03 µM) was 47.5%, the viability, T/C (second compound 0.316 µM, first compound 0.0949 µM) was 15.9% and the viability, T/C (second compound 0.316 µM, first compound 0.3 µM) was 11.3%. It also gave a viability, T/C (second compound 1 µM, first compound 0.000949 µM) of 104%, a viability, T/C (second compound 1 µM, first compound 0.003 µM) of 79.4% and a viability, T/C (second compound 1 µM, first compound 0.00949 µM) of 58%. It also gave a viability, T/C (second compound 1 µM, first compound 0.03 µM) of 45.5%, a viability, T/C (second compound 1 µM, first compound 0.0949 µM) of 13.5% and a viability, T/C (second compound 1 µM, first compound 0.3 µM) of 9.51%. It also gave a viability, T/C (second compound 3.16 µM, first compound 0.000949 µM) of 112%, a viability, T/C (second compound 3.16 µM, first compound 0.003 µM) of 84.9% and a viability, T/C (second compound 3.16 µM, first compound 0.00949 µM) of 64.6%. For the same compound, the viability, T/C (second compound 3.16 µM, first compound 0.03 µM) was 47.1%, the viability, T/C (second compound 3.16 µM, first compound 0.0949 µM) was 13.6% and the viability, T/C (second compound 3.16 µM, first compound 0.3 µM) was 8.79%. It also gave a viability, T/C (second compound 10 µM, first compound 0.000949 µM) of 108%, a viability, T/C (second compound 10 µM, first compound 0.003 µM) of 87.6% and a viability, T/C (second compound 10 µM, first compound 0.00949 µM) of 55.1%. It also gave a viability, T/C (second compound 10 µM, first compound 0.03 µM) of 58.9%, a viability, T/C (second compound 10 µM, first compound 0.0949 µM) of 11.1% and a viability, T/C (second compound 10 µM, first compound 0.3 µM) of 6.89%.

With `C=CC(=O)Nc1cc(Nc2nccc(-c3cn(C)c4ccccc34)n2)c(OC)cc1N(C)CCN(C)C` + C=CC(=O)N1CCN(c2nc(OCC3CCCN3C)nc3c(F)c(-c4nc(N)cc(C)c4C(F)(F)F)c(Cl)cc23)C(C)C1 the IC50 (second compound 0.00316 µM) was over 1000 nM, the IC50 (second compound 0.01 µM) was over 1000 nM and the IC50 (second compound 0.0316 µM) was over 1000 nM. For the same compound, the IC50 (second compound 0.1 µM) was over 1000 nM, the IC50 (second compound 0.316 µM) was over 1000 nM and the IC50 (second compound 1 µM) was over 1000 nM. For the same compound, the viability, T/C [1] was 103%, the viability, T/C [2] was 93.5% and the viability, T/C [3] was 101%. For the same compound, the viability, T/C [4] was 99.1%, the viability, T/C [5] was 101% and the viability, T/C [6] was 82.8%. The viability, T/C [7] was 98.9%, the viability, T/C [8] was 99.4% and the viability, T/C [9] was 98.7%. For the same compound, the viability, T/C [10] was 101%, the viability, T/C [11] was 101% and the viability, T/C [12] was 92.2%. It also gave a viability, T/C [13] of 106%, a viability, T/C [14] of 101% and a viability, T/C [15] of 92.9%. For the same compound, the viability, T/C [16] was 107%, the viability, T/C [17] was 107% and the viability, T/C [18] was 82%. For the same compound, the viability, T/C [19] was 110%, the viability, T/C [20] was 95% and the viability, T/C [21] was 112%. For the same compound, the viability, T/C [22] was 97.7%, the viability, T/C [23] was 96.4% and the viability, T/C [24] was 99.6%. For the same compound, the viability, T/C [25] was 112%, the viability, T/C [26] was 103% and the viability, T/C [27] was 101%. For the same compound, the viability, T/C [28] was 107%, the viability, T/C [29] was 102% and the viability, T/C [30] was 89.1%. It also gave a viability, T/C [31] of 98.4%, a viability, T/C [32] of 97.2% and a viability, T/C [33] of 91.8%. For the same compound, the viability, T/C [34] was 94.5%, the viability, T/C [35] was 105% and the viability, T/C [36] was 78.8%.

Work on `O=C(c1ccc(F)c(F)c1Nc1ccc(I)cc1F)N1CC(O)([C@@H]2CCCCN2)C1` + C=CC(=O)N1CCN(c2nc(OCC3CCCN3C)nc3c(F)c(-c4nc(N)cc(C)c4C(F)(F)F)c(Cl)cc23)C(C)C1 yielded an IC50 (second compound 0.00316 µM) of 5.71 nM, an IC50 (second compound 0.01 µM) of 6.26 nM and an IC50 (second compound 0.0316 µM) of 6.75 nM. It also gave an IC50 (second compound 0.1 µM) of 8.47 nM, an IC50 (second compound 0.316 µM) of 7.95 nM and an IC50 (second compound 1 µM) of 8.43 nM. For the same compound, the viability, T/C [1] was 71.1%, the viability, T/C [2] was 30% and the viability, T/C [3] was 6.25%. The viability, T/C [4] was 3.24%, the viability, T/C [5] was 1.5% and the viability, T/C [6] was 0.84%. It also gave a viability, T/C [7] of 74.8%, a viability, T/C [8] of 33% and a viability, T/C [9] of 5.84%. It also gave a viability, T/C [10] of 2.5%, a viability, T/C [11] of 1.9% and a viability, T/C [12] of 0.68%. It also gave a viability, T/C [13] of 81.8%, a viability, T/C [14] of 33.5% and a viability, T/C [15] of 7.48%. It also gave a viability, T/C [16] of 2.48%, a viability, T/C [17] of 1.88% and a viability, T/C [18] of 0.72%. The viability, T/C [19] was 73.9%, the viability, T/C [20] was 46% and the viability, T/C [21] was 7.56%. It also gave a viability, T/C [22] of 2.66%, a viability, T/C [23] of 1.89% and a viability, T/C [24] of 1.02%. It also gave a viability, T/C [25] of 74.5%, a viability, T/C [26] of 43.9% and a viability, T/C [27] of 9.69%. The viability, T/C [28] was 2.51%, the viability, T/C [29] was 1.92% and the viability, T/C [30] was 0.96%. For the same compound, the viability, T/C [31] was 72.8%, the viability, T/C [32] was 46% and the viability, T/C [33] was 7.46%. It also gave a viability, T/C [34] of 3.39%, a viability, T/C [35] of 1.9% and a viability, T/C [36] of 1.15%.

From PubChem BioAssay AID2060895 (Molecular Pharmacology Branch, DTP, NCI, 2025)
